Experimental data as given in BigSolDB 2.1.

CCc1nnc(NC(=O)CCCCCNC(C)=O)s1
solubility (mole fraction)
Conditions	288.15 K	293.15 K	298.15 K	303.15 K	308.15 K	313.15 K	318.15 K
in ethanol	0.000578	0.000733	0.000965	0.00118	0.00162	0.0021	0.0026
in n-hexane	1.54e-05	1.81e-05	2.15e-05	2.47e-05	3.05e-05	3.55e-05	4.13e-05
in n-octanol	0.000685	0.000814	0.000961	0.00113	0.00142	0.00167	0.00194
